Assay results from US20080161232A1, “C5a Receptor Antagonist” (JERINI AG, priority 2005, published 2008).
Starred links: 1 amine or outer side, 2 acyl side, 3 side chain; linkers in the order of their positions; H or OH if unused. Non-standard residues stand in square brackets, D forms with d. Residues, ends and D or L forms follow the SMILES beside them. *: point of attachment. Phe(3-Cl) = N[C@@H](Cc1cccc(Cl)c1)C(=O)O; Phe(4-Cl) = N[C@@H](Cc1ccc(Cl)cc1)C(=O)O; Phe(4-F) = N[C@@H](Cc1ccc(F)cc1)C(=O)O; 1Nal = N[C@@H](Cc1cccc2ccccc12)C(=O)O; Bta = N[C@@H](Cc1csc2ccccc12)C(=O)O; d(hCha) = N[C@H](CCC1CCCCC1)C(=O)O; Hydrocinnamoyl = O=C(CCc1ccccc1)*; Hyp = O=C(O)[C@@H]1C[C@@H](O)CN1; Tic = O=C(O)[C@@H]1Cc2ccccc2CN1; 2Thi = N[C@@H](Cc1cccs1)C(=O)O; dCha = N[C@H](CC1CCCCC1)C(=O)O; dChg = N[C@@H](C(=O)O)C1CCCCC1; Butoxycarbonyl = CCCCOC(=O)*; Phg = N[C@H](C(=O)O)c1ccccc1; Pip = O=C(O)[C@@H]1CCCCN1; Orn = NCCC[C@H](N)C(=O)O; Aze = O=C(O)[C@@H]1CCN1; CO = O=C([*:1])[*:2]; NHPh = c1ccc(N*)cc1; Ms = CS(=O)(=O)*

biological target: T1, human C5aR(CD88) (Homo sapiens, UniProt P21730); test: Determination of the IC50 value in an enzyme release assay (functional assay, antagonistic activity); format: cell-based; details: antagonistic activity; IC50 group in enzyme release assay, RBL cells expressing human C5aR(CD88); read-out: activity (group)
T1 construct: expressed in transfected cells; host or cells: rat basophilic leukemia cells (RBL)
T1 sequence (P21730 1-350): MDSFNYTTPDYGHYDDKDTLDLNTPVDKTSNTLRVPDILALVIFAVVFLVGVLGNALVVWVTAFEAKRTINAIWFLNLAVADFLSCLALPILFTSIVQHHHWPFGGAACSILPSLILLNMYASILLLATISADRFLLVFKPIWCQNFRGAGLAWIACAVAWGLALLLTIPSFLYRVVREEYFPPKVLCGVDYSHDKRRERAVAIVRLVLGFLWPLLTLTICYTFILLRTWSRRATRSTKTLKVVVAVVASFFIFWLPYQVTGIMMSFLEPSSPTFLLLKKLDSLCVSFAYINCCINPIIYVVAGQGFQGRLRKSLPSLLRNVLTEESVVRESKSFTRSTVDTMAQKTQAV

`CC(=O)N[C@@H](Cc1ccccc1)C(=O)N[C@@H](CCCN)C(=O)N1CCC[C@H]1C(=O)N[C@H](CC1CCCCC1)C(=O)N[C@@H](Cc1c[nH]c2ccccc12)C(=O)N[C@@H](Cc1cccs1)C(N)=O` [Compound 80, Ac-Phe-Orn-Pro-cha-Trp-Thi-NH2] (Ac-F[Orn]P[dCha]W[2Thi]-NH2) and `CC(=O)N[C@@H](Cc1ccccc1)C(=O)N[C@@H](CCCCN)C(=O)N1CCC[C@H]1C(=O)N[C@H](CC1CCCCC1)C(=O)N[C@@H](Cc1c[nH]c2ccccc12)C(=O)N[C@@H](Cc1ccccc1)C(N)=O` [Compound 87, Ac-Phe-Lys-Pro-cha-Trp-Phe-NH2] (Ac-FKP[dCha]WF-NH2) fall in the same range of IC50: 50 to 200 nM for the first, 50 to 200 nM for the second.

First: CC(=O)N[C@@H](Cc1ccccc1)C(=O)N[C@@H](CCCN)C(=O)N1CC[C@H]1C(=O)N[C@H](CC1CCCCC1)C(=O)N[C@@H](Cc1ccc(Cl)cc1)C(=O)N[C@@H](Cc1ccccc1)C(N)=O [Compound 81, Ac-Phe-Orn-Aze-cha-Pcf-Phe-NH2] (Ac-F[Orn][Aze][dCha][Phe(4-Cl)]F-NH2)
Second: CC(=O)N[C@@H](Cc1ccccc1)C(=O)N[C@@H](CCCN)C(=O)N1CC[C@H]1C(=O)N[C@H](CC1CCCCC1)C(=O)N[C@@H](Cc1ccc(F)cc1)C(=O)N[C@@H](Cc1ccccc1)C(N)=O [Compound 99, Ac-Phe-Orn-Aze-cha-Pff-Phe-NH2] (Ac-F[Orn][Aze][dCha][Phe(4-F)]F-NH2)
The IC50 of the first is higher: 200 to 2000 nM for the first, 50 to 200 nM for the second.

`CC(=O)NCCC[C@H](NC(=O)[C@H](Cc1ccccc1)NC(C)=O)C(=O)N1CCC[C@H]1C(=O)N[C@H](CC1CCCCC1)C(=O)N[C@@H](Cc1c[nH]c2ccccc12)C(=O)N[C@@H](Cc1ccccc1)C(N)=O` [Compound 82, Ac-Phe-Orn(Ac)-Pro-cha-Trp-Phe-NH2] (Ac-F[Orn](Ac)P[dCha]WF-NH2) and `CC(=O)N[C@@H](Cc1ccccc1)C(=O)N[C@@H](CCCNC(=N)N)C(=O)N1CCC[C@H]1C(=O)N[C@H](CC1CCCCC1)C(=O)N[C@@H](Cc1c[nH]c2ccccc12)C(=O)N[C@@H](Cc1ccccc1)C(N)=O` [Compound 104, Ac-Phe-Arg-Pro-cha-Trp-Phe-NH2] (Ac-FRP[dCha]WF-NH2) fall in the same range of IC50: 50 to 200 nM for the first, 50 to 200 nM for the second.

`NCCC[C@H](NC(=O)[C@H](Cc1ccccc1)NC(=O)Nc1ccccc1)C(=O)N1CCC[C@H]1C(=O)N[C@H](CC1CCCCC1)C(=O)N[C@@H](Cc1c[nH]c2ccccc12)C(=O)N[C@@H](Cc1ccccc1)C(N)=O` [Compound 85, Ph-NH—CO-Phe-Orn-Pro-cha-Trp-Phe-NH2] ({NHPh-CO}-F[Orn]P[dCha]WF-NH2) and `CC(=O)N[C@@H](Cc1ccccc1)C(=O)N[C@@H](CCCN)C(=O)N1CCCC[C@H]1C(=O)N[C@H](CC1CCCCC1)C(=O)N[C@@H](Cc1c[nH]c2ccccc12)C(=O)N[C@@H](Cc1ccccc1)C(N)=O` [Compound 92, Ac-Phe-Orn-Pip-cha-Trp-Phe-NH2] (Ac-F[Orn][Pip][dCha]WF-NH2) fall in the same range of IC50: 50 to 200 nM for the first, 50 to 200 nM for the second.

Compared with `CCCCOC(=O)N[C@@H](Cc1ccccc1)C(=O)N[C@@H](CCCN)C(=O)N1CCC[C@H]1C(=O)N[C@H](CC1CCCCC1)C(=O)N[C@@H](Cc1c[nH]c2ccccc12)C(=O)N[C@@H](Cc1ccccc1)C(N)=O` [Compound 86, Bu-O—CO-Phe-Orn-Pro-cha-Trp-Phe-NH2] (Butoxycarbonyl-F[Orn]P[dCha]WF-NH2), `CC(=O)N[C@@H](Cc1ccccc1)C(=O)N[C@@H](CCCN)C(=O)N1CCC[C@H]1C(=O)N[C@H](CCC1CCCCC1)C(=O)N[C@@H](Cc1c[nH]c2ccccc12)C(=O)N[C@@H](Cc1ccccc1)C(N)=O` [Compound 110, Ac-Phe-Orn-Pro-hch-Trp-Phe-NH2] (Ac-F[Orn]P[d(hCha)]WF-NH2) is lower in IC50: 200 to 2000 nM for the first, 20 to 50 nM for the second. The second is the more potent here.

`CC(=O)N[C@@H](Cc1ccccc1)C(=O)N[C@@H](CCC(N)=O)C(=O)N1CCC[C@H]1C(=O)N[C@H](CC1CCCCC1)C(=O)N[C@@H](Cc1c[nH]c2ccccc12)C(=O)N[C@@H](Cc1ccccc1)C(N)=O` [Compound 89, Ac-Phe-Gln-Pro-cha-Trp-Phe-NH2] (Ac-FQP[dCha]WF-NH2) and `CC(=O)N[C@@H](Cc1ccccc1)C(=O)N[C@@H](CCC(=O)O)C(=O)N1CCC[C@H]1C(=O)N[C@H](CC1CCCCC1)C(=O)N[C@@H](Cc1c[nH]c2ccccc12)C(=O)N[C@@H](Cc1ccccc1)C(N)=O` [Compound 91, Ac-Phe-Glu-Pro-cha-Trp-Phe-NH2] (Ac-FEP[dCha]WF-NH2) fall in the same range of IC50: 200 to 2000 nM for the first, 200 to 2000 nM for the second.

`CC(=O)N[C@@H](Cc1ccccc1)C(=O)N[C@@H](CO)C(=O)N1CCC[C@H]1C(=O)N[C@H](CC1CCCCC1)C(=O)N[C@@H](Cc1c[nH]c2ccccc12)C(=O)N[C@@H](Cc1ccccc1)C(N)=O` [Compound 90, Ac-Phe-Ser-Pro-cha-Trp-Phe-NH2] (Ac-FSP[dCha]WF-NH2) and `CC(=O)N[C@@H](Cc1ccccc1)C(=O)N[C@@H](CCCN)C(=O)N1CCCC[C@H]1C(=O)N[C@H](CC1CCCCC1)C(=O)N[C@@H](Cc1c[nH]c2ccccc12)C(=O)N[C@@H](Cc1ccccc1)C(=O)O` [Compound 115, Ac-Phe-Orn-Pip-cha-Trp-Phe-OH] (Ac-F[Orn][Pip][dCha]WF-OH) fall in the same range of IC50: 200 to 2000 nM for the first, 200 to 2000 nM for the second.

First: CC(=O)N[C@@H](Cc1ccccc1)C(=O)N[C@@H](CCCN)C(=O)N1C[C@H](O)C[C@H]1C(=O)N[C@H](CC1CCCCC1)C(=O)N[C@@H](Cc1c[nH]c2ccccc12)C(=O)N[C@@H](Cc1ccccc1)C(N)=O [Compound 93, Ac-Phe-Orn-Hyp-cha-Trp-Phe-NH2] (Ac-F[Orn][Hyp][dCha]WF-NH2)
Second: CC(=O)N[C@@H](Cc1ccccc1)C(=O)N[C@@H](CCCN)C(=O)N1Cc2ccccc2C[C@H]1C(=O)N[C@H](CC1CCCCC1)C(=O)N[C@@H](Cc1c[nH]c2ccccc12)C(=O)N[C@@H](Cc1ccccc1)C(N)=O [Compound 107, Ac-Phe-Orn-Tic-cha-Trp-Phe-NH2] (Ac-F[Orn][Tic][dCha]WF-NH2)
The IC50 of the first is higher: 200 to 2000 nM for the first, 50 to 200 nM for the second.

Compared with `CC(=O)N[C@@H](Cc1ccccc1)C(=O)N[C@@H](CCCN)C(=O)N1CCC[C@H]1C(=O)N[C@H](CC1CCCCC1)C(=O)N[C@@H](Cc1c[nH]c2ccccc12)C(=O)N[C@@H](Cc1cccc2ccccc12)C(N)=O` [Compound 94, Ac-Phe-Orn-Pro-cha-Trp-1Ni—NH2] (Ac-F[Orn]P[dCha]W[1Nal]-NH2), `CC(=O)N[C@@H](Cc1ccccc1)C(=O)N[C@@H](CCCN)C(=O)N1CCC[C@H]1C(=O)N[C@H](CC1CCCCC1)C(=O)N[C@@H](Cc1c[nH]c2ccccc12)C(=O)N[C@H](C(N)=O)c1ccccc1` [Compound 111, Ac-Phe-Orn-Pro-cha-Trp-Phg-NH2] (Ac-F[Orn]P[dCha]W[Phg]-NH2) is higher in IC50: 20 to 50 nM for the first, 200 to 2000 nM for the second.

First: CNC(=O)[C@H](Cc1ccccc1)NC(=O)[C@H](Cc1csc2ccccc12)NC(=O)[C@@H](CC1CCCCC1)NC(=O)[C@@H]1CCN1C(=O)[C@H](CCCN)NC(=O)[C@H](Cc1ccccc1)NC(C)=O [Compound 95, Ac-Phe-Orn-Aze-cha-Bta-Phe-NH—Me] (Ac-F[Orn][Aze][dCha][Bta]F-NHMe)
Second: CS(=O)(=O)N[C@@H](Cc1ccccc1)C(=O)N[C@@H](CCCN)C(=O)N1CC[C@H]1C(=O)N[C@H](CC1CCCCC1)C(=O)N[C@@H](Cc1csc2ccccc12)C(=O)N[C@@H](Cc1ccccc1)C(N)=O [Compound 96, CH3—SO2-Phe-Orn-Aze-cha-Bta-Phe-NH2] (Ms-F[Orn][Aze][dCha][Bta]F-NH2)
The IC50 of the first is higher: 200 to 2000 nM for the first, 20 to 50 nM for the second.

`CC(=O)N[C@@H](Cc1ccccc1)C(=O)N[C@@H](CCCN)C(=O)N1CC[C@H]1C(=O)N[C@H](CC1CCCCC1)C(=O)N[C@@H](Cc1cccc(Cl)c1)C(=O)N[C@@H](Cc1ccccc1)C(N)=O` [Compound 100, Ac-Phe-Orn-Aze-cha-Mcf-Phe-NH2] (Ac-F[Orn][Aze][dCha][Phe(3-Cl)]F-NH2) and `CC(=O)N[C@@H](Cc1ccccc1)C(=O)N[C@@H](CCCN)C(=O)N1CCC[C@H]1C(=O)N[C@@H](C(=O)N[C@@H](Cc1c[nH]c2ccccc12)C(=O)N[C@@H](Cc1ccccc1)C(N)=O)C1CCCCC1` [Compound 109, Ac-Phe-Orn-Pro-chg-Trp-Phe-NH2] (Ac-F[Orn]P[dChg]WF-NH2) fall in the same range of IC50: 50 to 200 nM for the first, 50 to 200 nM for the second.

First: NCCC[C@H](NC(=O)CCc1ccccc1)C(=O)N1CC[C@H]1C(=O)N[C@H](CC1CCCCC1)C(=O)N[C@@H](Cc1csc2ccccc12)C(=O)N[C@@H](Cc1ccccc1)C(N)=O [Compound 106, 3PP-Orn-Aze-cha-Bta-Phe-NH2] (Hydrocinnamoyl-[Orn][Aze][dCha][Bta]F-NH2)
Second: CC(=O)N[C@@H](Cc1ccccc1)C(=O)N[C@@H](Cc1csc2ccccc12)C(=O)N1CC[C@H]1C(=O)N[C@H](CC1CCCCC1)C(=O)N[C@@H](Cc1csc2ccccc12)C(=O)N[C@@H](Cc1ccccc1)C(N)=O [Compound 112, Ac-Phe-Bta-Aze-cha-Bta-Phe-NH2] (Ac-F[Bta][Aze][dCha][Bta]F-NH2)
The IC50 of the first is higher: 50 to 200 nM for the first, 20 to 50 nM for the second. The second is the more potent here.

Compared with `CC(=O)N[C@@H](Cc1ccccc1)C(=O)N[C@@H](CCCN)C(=O)N[C@@H](CO)C(=O)N[C@H](CC1CCCCC1)C(=O)N[C@@H](Cc1c[nH]c2ccccc12)C(=O)N[C@@H](Cc1ccccc1)C(N)=O` [Compound 108, Ac-Phe-Orn-Ser-cha-Trp-Phe-NH2] (Ac-F[Orn]S[dCha]WF-NH2), `CC(=O)N[C@@H](Cc1ccccc1)C(=O)N[C@@H](CCCN)C(=O)N1Cc2ccccc2C[C@H]1C(=O)N[C@H](CC1CCCCC1)C(=O)N[C@@H](Cc1c[nH]c2ccccc12)C(=O)N[C@@H](Cc1ccccc1)C(=O)O` [Compound 116, Ac-Phe-Orn-Tic-cha-Trp-Phe-OH] (Ac-F[Orn][Tic][dCha]WF-OH) is higher in IC50: 20 to 50 nM for the first, 200 to 2000 nM for the second.

In the case of `CC(=O)N[C@@H](Cc1ccccc1)C(=O)N[C@@H](Cc1c[nH]c2ccccc12)C(=O)N1CCC[C@H]1C(=O)N[C@H](CC1CCCCC1)C(=O)N[C@@H](Cc1csc2ccccc12)C(=O)N[C@@H](Cc1ccccc1)C(N)=O` [Compound 113, Ac-Phe-Trp-Pro-cha-Bta-Phe-NH2] (Ac-FWP[dCha][Bta]F-NH2), the IC50 is reported as 50 to 200 nM.
